Experimental data taken from patent publication US12173026B2, “PRMT5 inhibitors” (Merck Sharp & Dohme LLC, priority 2018, dated 2024).

Tests used:
[1] = molecular target: T1, PRMT5-MEP50 enzyme complex (Homo sapiens, UniProt O14744); assay: PRMT5-MEP50 Enzyme Methylation Assay; format: biochemical; conditions: one EC50 shown: 4 parameters single site sigmoidal model; two shown: first EC50 of 7 parameters biphasic model; 1.0 nM PRMT5-MEP50, 75 nM biotinylated H4R3(Me1) peptide, 15 μM SAM; read-out: Enzyme Methylation Assay (EC50 or EC50 1)
T1 construct: Full-length (FL)-PRMT5-MEP50 enzyme complex; made in house; host or cells: baculovirus-transfected Sf21 cells
T1 sequence (O14744 whole entry): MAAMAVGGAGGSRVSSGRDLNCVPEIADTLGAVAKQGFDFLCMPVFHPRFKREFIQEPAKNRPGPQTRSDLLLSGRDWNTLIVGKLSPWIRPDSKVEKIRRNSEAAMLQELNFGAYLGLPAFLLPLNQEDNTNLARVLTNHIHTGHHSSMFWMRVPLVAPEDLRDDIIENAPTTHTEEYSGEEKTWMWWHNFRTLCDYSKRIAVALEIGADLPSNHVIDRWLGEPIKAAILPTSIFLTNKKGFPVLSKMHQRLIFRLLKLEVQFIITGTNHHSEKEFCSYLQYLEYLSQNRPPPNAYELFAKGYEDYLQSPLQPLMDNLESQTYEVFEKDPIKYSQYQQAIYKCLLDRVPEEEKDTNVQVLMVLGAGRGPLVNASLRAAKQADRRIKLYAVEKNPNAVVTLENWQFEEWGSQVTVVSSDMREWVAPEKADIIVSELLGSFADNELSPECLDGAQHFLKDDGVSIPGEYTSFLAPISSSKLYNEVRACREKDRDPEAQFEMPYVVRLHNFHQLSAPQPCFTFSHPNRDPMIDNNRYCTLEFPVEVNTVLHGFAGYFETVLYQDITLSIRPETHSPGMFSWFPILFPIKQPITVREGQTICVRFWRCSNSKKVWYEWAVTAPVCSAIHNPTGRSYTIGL
T1 sequence (Q9BQA1 whole entry partner): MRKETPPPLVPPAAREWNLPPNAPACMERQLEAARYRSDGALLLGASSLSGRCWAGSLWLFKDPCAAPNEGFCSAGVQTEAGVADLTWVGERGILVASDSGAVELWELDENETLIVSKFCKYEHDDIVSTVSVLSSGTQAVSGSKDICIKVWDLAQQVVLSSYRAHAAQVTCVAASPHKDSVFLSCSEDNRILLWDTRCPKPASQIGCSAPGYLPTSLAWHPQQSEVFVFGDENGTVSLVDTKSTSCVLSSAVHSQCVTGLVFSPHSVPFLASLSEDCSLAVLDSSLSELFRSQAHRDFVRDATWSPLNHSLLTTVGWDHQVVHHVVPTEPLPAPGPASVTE
Description: PRMT5-MEP50 Enzyme Methylation Assay
PRMT5-MEP50 biochemical assay is a direct measurement of the methylation activity of the enzyme complex on a short peptide substrate derived from the N-terminus of […]. Methylation experiment is performed with recombinant PRMT5-MEP50 protein complex. The assessment of inhibitory effect of small molecules is measured by the effectiveness of the compounds to inhibit this reaction (EC50).
In this assay, the potency (EC50) of each compound was determined from a twenty-point (1:2 serial dilution; top compound concentration of 100000 nM) titration curve using the following outlined procedure. To each well of a white ProxiPlus 384 well-plate, 100 nL of compound (1% DMSO in final assay volume of 10 μL) was dispensed, followed by the addition of 8 μL of 1× assay buffer (50 mM Bicine pH 8.0, 1 mM DTT, 0.004% Tween20, 0.01% BSA) containing 1.25 nM of Full-length (FL)-PRMT5-MEP50 enzyme complex (recombinant proteins from baculovirus-transfected Sf21 cells: FL-PRMT5; MW=[…] and FL-MEP50; MW=38614) and 1 μL of 150 μM S-(5′-Adenosyl)-L-Methionine Chloride (SAM). Plates were sealed and placed in a 37° C. humidified chamber for a 60 minutes pre-incubation with compound. Subsequently, each reaction was initiated by the addition of 1 μL 1× assay buffer containing 750 nM biotinylated H4R3(Me1) peptide. The final reaction in each well of 10 μL consists of 1.0 nM PRMT5-MEP50, 75 nM biotinylated-peptide, and 15 μM SAM. Methylation reactions proceeded for 150 minutes in a sealed plate at 37° C. Reactions were immediately quenched by the addition of 1 μL of 5% formic acid. Plates were then frozen and shipped to SAMDI™ Tech Inc. to determine the percent conversion from H4R3(Me1) to H4R3(Me2). Dose-response curves were generated by plotting percent effect (% product conversion; Y-axis) vs. Log 10 compound concentrations (X-axis). EC50 values were determined by non-linear regression according to models for either sigmoidal (4 parameters) or biphasic (7 parameters) dose-response curves.

[2] = tested on: symmetric dimethylation of arginine (SDMA) of PRMT5 substrates in MCF-7 cells; assay: PRMT5 Cell Target Engagement (TE) Assay; format: cell-based; conditions: MCF-7 cells treated for 3 days, nuclear SDMA by high content imaging, top concentration 10000 nM
Procedure, shortened: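 MCF-7 cells treated 3 days at 37 °C with 10-point 1:3 titration from 10000 nM top. Fixed cells stained with anti-SDMA antibody plus Alexa488 secondary and Hoechst; nuclear fluorescence quantified by high-content imaging versus DMSO wells. EC50 from 4-parameter fit of percent fluorescence vs log concentration.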

| Compound | EC50 [1] [nM] | EC50 [2] [nM] | EC50 ([2]; Homo sapiens, MCF7, 72 h) [nM] |
| --- | --- | --- | --- |
| Nc1nc2cc(C[C@@H]3CC[C@@]4(O)[C@@H]3O[C@@H](n3cc(C5CC5)c5c(N)ncnc53)[C@@H]4O)ccc2cc1F [Example 50] | 0.3 | 0.7 | – |
| Nc1nc2cc(O[C@H]3CC[C@@]4(O)[C@@H]3O[C@@H](n3ccc5c(C(F)F)ncnc53)[C@@H]4O)ccc2cc1Br [Example 79, (2R,3R,3aS,6S,6aR)-6-((2-amino-3-bromoquinolin-7-yl)oxy)-2-(4-(difluoromethyl)-7H-pyrrolo[2,3-d]pyrimidin-7-yl)hexabodro-3aH-cyclopenta[b]furan-3,3a-diol] | 2.9 | 52.5 | – |
| Nc1nc2cc(C[C@@H]3CC[C@@]4(O)[C@@H]3O[C@@H](n3ccc5c(N)nc(Cl)nc53)[C@@H]4O)ccc2cc1F [Example 48, (2R,3R,3aS,6S,6aR)-2-(4-amino-2-chloro-7H-pyrrolo[2,3-d]pyrimidin-7-yl)-6-[(2-amino-3-fluoroquinolin-7-yl)methyl]hexahydro-3aH-cyclopenta[b]furan-3,3a-diol] | – | – | 1.7 |
| Nc1nc2cc(O[C@H]3CC[C@@]4(O)[C@@H]3O[C@@H](n3ccc5c(N)ncnc53)[C@@H]4O)ccc2cc1F [Example 71, (2R,3R,3aS,6S,6aR)-6-((2-amino-3-fluoroquinolin-7-yl)oxy)-2-(4-amino-7H-pyrrolo[2,3-d]pyrimidin-7-yl)hexahydro-3aH-cyclopenta[b]furan-3,3a-diol] | – | – | 9 |
| C[C@@]1(O)[C@@H](COc2ccc3cc(Br)c(N)nc3c2)O[C@@H](n2ccc3c(Cl)ncnc32)[C@@H]1O [Example 11, (2R,3S,4R,5R)-2-{[(2-amino-3-bromoquinolin-7-yl)oxy]methyl}-5-(4-chloro-7H-pyrrolo[2,3-d]pyrimidin-7-yl)-3-methyltetrahydrofuran-3,4-diol] | – | – | 131 |
| Nc1nc2cc(C[C@@H]3CC[C@@]4(O)[C@@H]3O[C@@H](n3ccc5c(N)nc(Cl)nc53)[C@@H]4O)ccc2cc1Cl [Example 47, (2R,3R,3aS,6S,6aR)-2-(4-amino-2-chloro-7H-pyrrolo[2,3-d]pyrimidin-7-yl)-6-[(2-amino-3-chloroquinolin-7-yl)methyl]hexahydro-3aH-cyclopenta[b]furan-3,3a-diol] | – | – | 1.4 |
| Nc1nc2cc(CCC3(CF)C[C@@H](n4ccc5c(N)ncnc54)[C@H](O)[C@@H]3O)ccc2cc1Br (stereo partly shown) [Example 102] | 0.3 | 2 | – |
| CNc1ncnc2c1ccn2[C@@H]1C[C@@H]2[C@H](Cc3ccc4cc(Br)c(N)nc4c3)CC[C@]2(O)[C@H]1O [Example 97, (1S,2R,3aR,4S,6aR)-4-((2-amino-3-bromoquinolin-7-yl)methyl)-2-(4-(methylamino)-7H-pyrrolo[2,3-d]pyrimidin-7-yl)hexahydropentalene-1,6a(1H)-diol] | – | – | 1.3 |
| Nc1nc2cc(C[C@@H]3CC[C@@]4(O)[C@@H]3O[C@@H](n3cc(C(F)F)c5c(N)ncnc53)[C@@H]4O)ccc2cc1F [Example 51, (2R,3R,3aS,6S,6aR)-2-[4-amino-5-(difluoromethyl)-7H-pyrrolo[2,3-d]pyrimidin-7-yl]-6-[(2-amino-3-fluoroquinolin-7-yl)methyl]hexahydro-3aH-cyclopenta[b]furan-3,3a-diol] | – | – | 2.8 |

Further compounds by falling EC50 ([2]; Homo sapiens, MCF7, 72 h), results first:

| EC50 [1] [nM] | EC50 [2] [nM] | EC50 ([2]; Homo sapiens, MCF7, 72 h) [nM] | Compound |
| --- | --- | --- | --- |
| – | – | 1.2 | Nc1nc2cc(C[C@@H]3CC[C@@]4(O)[C@@H]3O[C@@H](n3ccc5c(N)nc(F)nc53)[C@@H]4O)ccc2cc1F [Example 45, (2R,3R,3aS,6S,6aR)-2(4-amino-2-fluoro-7H-pyrrolo[2,3-d]pyrimidin-7-yl)-6-((2-amino-3-fluoroquinolin-7-yl)methyl)hexahydro-3aH-cyclopenta[b]furan-3,3a-diol] |
| – | – | 1 | Nc1nc2cc(C[C@@H]3CC[C@@]4(O)[C@@H]3O[C@@H](n3cc(C(F)F)c5c(N)ncnc53)[C@@H]4O)ccc2cc1Br [Example 43, (2R,3R,3aS,6S,6aR)-6-[(2-amino-3-bromoquinolin-7-yl)methyl]-2-[4-amino-5-(difluoromethyl)-7H-pyrrolo[2,3-d]pyrimidin-7-yl]hexahydro-3aH-cyclopenta[b]furan-3,3a-diol] |
| – | – | 0.9 | Nc1nc2cc(C[C@@H]3CC[C@@]4(O)[C@@H]3O[C@@H](n3cc(F)c5c(N)ncnc53)[C@@H]4O)ccc2cc1Br [Example 108] |
| – | – | 0.3 | Cc1cn([C@@H]2C[C@@H]3[C@H](Cc4ccc5cc(Cl)c(N)nc5c4)CC[C@]3(O)[C@H]2O)c2ncnc(N)c12 [Example 39, (1S,2R,3aR,4S,6aR)-4-((2-amino-3-chloroquinolin-7-yl)methyl)-2-(4-amino-5-methyl-7H-pyrrolo[2,3-d]pyrimidin-7-yl)hexahydropentalene-1,6a(1H)-diol] |
